Active and inactive are the calls of the source.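 Rule for the calls: active = compounds whose fitted half-maximal concentration for changing the GFP signal is at or below a set limit; inactive = the rest.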
Assay: TOR pathway RPL19A-GFP modulators, concentration series – cell-based, S. cerevisiae, flow cytometry, MLPCN hits, dose response (AID 2740);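 note: background is signal of the same compound in parental non-GFP s288c yeast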
Settings: S. cerevisiae RPL19A-GFP strain, flow cytometry fluorescence, 3 h; at 33 µM (top of the series)

SMILES | GFP fluorescence, lower = active (kMESF (background-subtracted))
CC(=O)Oc1ccc(N2C(=O)C3C4C=CC(CO)(O4)C3C2=O)cc1 (stereo not drawn) | 38.8 (inactive)
O=C(O)/C=C/C(=O)c1ccc2c(c1)CCc1ccccc1-2 | 16.8 (inactive)
Cc1cc(NC(c2ccc(Cl)cc2)c2ccc3cccnc3c2O)no1 (stereo not drawn) | 39.3 (inactive)
O=C1C=C(c2ccc(Cl)cc2)C(=O)N1Nc1ccccc1 | 18.7 (inactive)
O=C1N(c2ccccc2C(F)(F)F)O[C@]1(c1ccccc1)C1CCCCC1 | 36.4 (inactive)
CCN(CC)C(=S)SSC(=S)N(CC)CC | 34.1 (inactive)
CC1=C(C)/C(=N\OS(=O)(=O)c2ccccc2)C=CC1=O | 24.9 (inactive)
CCC(=O)Oc1oc(-c2ccccc2)nc1C=Nc1ccc(C)cc1 | 40.5 (inactive)
CCCCCCCCC/C(=N\O)c1ccccn1 | 38.8 (inactive)
Cc1ccsc1/C=N/Nc1ncc(Cl)cc1Cl | 49.1 (inactive)
CCc1cc(C(=O)Nc2nc(-c3ccccn3)cs2)sc1C | 23.7 (inactive)
O=C(/C=C/c1ccccc1)c1cc(Br)ccc(=O)c1O | 4.04 (inactive)
Cc1ccc(NC(=O)CCc2ccccc2)cc1S(=O)(=O)N1CCOCC1 | 45.9 (inactive)
O=C1C=C(Nc2ccc(Cl)cc2)C(=O)N1c1ccc(Cl)cc1 | 39.1 (inactive)
Cc1ccccc1OCC(=O)NNC(=S)NC(=O)c1ccco1 | 44.1 (inactive)
Cc1ccc(N=Nc2ccc(O)c3ncccc23)cc1 | 39.8 (inactive)
Oc1c(I)cc(Cl)c2cccnc12 | 25.8 (inactive)
N/C(=N\OC(=O)c1cccc(Br)c1)c1ccccc1 | 40.8 (inactive)
O=C(Oc1oc(-c2ccco2)nc1C=Nc1ccccc1)c1ccco1 | 38.5 (inactive)
COc1ccccc1-c1nc2s/c(=C\c3cccs3)c(=O)n2n1 | 36.9 (inactive)
Cc1ccnc(N2C(=O)c3cccc4c([N+](=O)[O-])ccc(c34)C2=O)c1 | 56.1 (inactive)

SMILES | GFP fluorescence, lower = active (kMESF (background-subtracted))
Cc1ccc(NC(=O)c2nc(S(=O)(=O)Cc3ccccc3)ncc2Cl)cc1 | 43 (inactive)
CCOc1ccc(NC2=C(Cl)C(=O)N(Cc3ccccc3)C2=O)cc1 | 44.3 (inactive)
Cc1c(Cc2ccccc2)c(NCCN(C)C)n2c(nc3ccccc32)c1C#N | 46.6 (inactive)
Cc1ccc(C(CC(=O)O)NC(=O)c2ccc(S(=O)(=O)N3CC(C)OC(C)C3)cc2)cc1 (stereo not drawn) | 39.2 (inactive)
Cc1cc(O)c(C(=O)/C=C/c2c(F)c(F)c(F)c(F)c2F)c(=O)o1 | 26.6 (inactive)
CC(Oc1cccc(Cl)c1)C(=O)Nc1nc(-c2ccccn2)cs1 (stereo not drawn) | 30 (inactive)
NC(=O)COc1ccc(C(=O)/C=C2/C(=O)Nc3ccccc32)cc1 | 40.3 (inactive)
CN(C)c1ccc(N=Cc2nc(-c3ccccc3)oc2OC(=O)c2cccc(Cl)c2)cc1 | 44.1 (inactive)
O=C1ON=C(c2ccccc2)/C1=C/c1ccco1 | 28.4 (inactive)
Cc1cccc(C(=O)NC(=S)NNC(=O)Cc2ccccc2)c1 | 52.4 (inactive)
COc1cccc(/C=C2\C(=O)N(c3cccc(C)c3)C(=O)c3ccccc32)c1 | 42.4 (inactive)
O=C1c2cccc3c([N+](=O)[O-])ccc(c23)C(=O)N1c1ccccn1 | 55.8 (inactive)
CCOc1ccc(N2C(=O)C(Cl)=C(Nc3ccccc3O)C2=O)cc1 | 45.1 (inactive)
O=c1oc2ccccc2c(O)c1[C@H]1c2ccc(O)cc2Oc2c1c(=O)oc1ccccc21 | 34.8 (inactive)
Oc1ccc(Br)cc1/C=N/Nc1ccccn1 | 40.5 (inactive)
COc1cc(/C=C/c2ccc3c(Br)cc(Br)c(O)c3n2)ccc1O | 29.4 (inactive)
Cc1[nH]n(-c2ncc(-c3ccccc3)s2)c(=O)c1C(c1ccc(Cl)cc1)C(C#N)C#N (stereo not drawn) | 42 (inactive)
O=C(OCn1ncc(Br)c(Br)c1=O)c1ccccc1Cl | 44.4 (inactive)
CC(=O)N(C1=C(Cl)C(=O)c2ccccc2C1=O)C1CCCCC1 | -1.82 (inactive)
Cc1ccc(/C=C2\SC(=S)N(CC3CCCO3)C2=O)o1 (stereo not drawn) | 42.5 (inactive)
COc1cccc(/C=C2\SC(=S)N(CCCC(=O)Nc3ccc(C(=O)O)cc3)C2=O)c1 | 38.2 (inactive)

SMILES | GFP fluorescence, lower = active (kMESF (background-subtracted))
O=C1N(c2ccccc2C(F)(F)F)O[C@@]1(c1ccccc1)C1CCCC1 | 46 (inactive)
CS(=O)(=O)N1N=C(c2ccccc2)CC1c1ccc2c(c1)OCO2 (stereo not drawn) | 36.9 (inactive)
O=C1c2ccccc2C(=O)N1OS(=O)(=O)c1ccccc1 | 43.2 (inactive)
O=C1Nc2ccc(Br)cc2/C1=C/C(=O)c1ccc2c(c1)OCO2 | 40.6 (inactive)
O=S1(=O)C=C(Sc2nc3ccccc3s2)c2ccccc21 | 36 (inactive)
Cc1cc(S(=O)(=O)ON2C(=O)c3ccccc3C2=O)ccc1F | 43.3 (inactive)
C=CCOc1ccccc1C(=O)/C=C1/C(=O)Nc2ccccc21 | 41.5 (inactive)
O=C1ON=C(c2ccccc2)/C1=C/c1ccc(-c2ccccc2[N+](=O)[O-])o1 | 25.3 (inactive)
N#C/C(=C\c1ccccn1)c1nc2ccccc2s1 | 54.2 (inactive)
Cc1ccccc1[C@]1(C)ON(c2ccccc2C(F)(F)F)C1=O | 42.8 (inactive)
N/C(=N\OC(=O)c1ccc(Cl)cc1Cl)c1ccccc1 | 39.4 (inactive)
CC(C)[C@@]1(c2ccccc2)ON(c2ccccc2C(F)(F)F)C1=O | 40.1 (inactive)
COc1cc(CNC(=O)CCCCCCC(C)C)ccc1O | 48.5 (inactive)
Clc1cccc(CN2COc3c(cc(Cl)c4cccnc34)C2)c1 | 36.5 (inactive)
COc1ccc(OCC(=O)NNC(=S)NC(=O)C2CCCCC2)cc1 | 38 (inactive)
Cc1ccc2c(c1)c(/C=C/c1cc[n+](C)cc1)c(C)n2C | 40.7 (inactive)
O=c1[nH]c(-c2ccccn2)nc(C(F)(F)F)c1Br | 30.1 (inactive)
Oc1ccc(N=Nc2ccccc2)o1 | 42.3 (inactive)
Cc1c(NC2=C(Cl)C(=O)N(c3ccccc3)C2=O)c(=O)n(-c2ccccc2)n1C | 43.6 (inactive)
CC(=O)Oc1ccc(/C=c2\sc3ncnn3c2=O)cc1 | 50 (inactive)
O=C(NCc1ccc2c(c1)OCO2)c1nc(S(=O)(=O)Cc2ccccc2)ncc1Cl | 43.5 (inactive)

SMILES | GFP fluorescence, lower = active (kMESF (background-subtracted))
Cc1cc(NC(=O)c2cccnc2Cl)ccc1NC(=O)c1cc2ccccc2o1 | 39.6 (inactive)
CN(C)/C=C/C(=O)c1ccc(-c2ccc(Cl)cc2Cl)o1 | 40.9 (inactive)
O=c1cc(-c2ccccc2)cc(-c2ccccc2)n1O | 15.4 (inactive)
Cc1ccc(C(=O)/C=C/C(=O)c2ccc(C)cc2)cc1 | 47.5 (inactive)
Cc1ccc(C(=O)NNC(=S)NC(=O)COc2ccccc2)cc1 | 41.1 (inactive)
O=S(=O)(/N=C(\Sc1ccc(Cl)cc1)c1ccccc1)c1ccccc1 | 33.6 (inactive)
O=C(Oc1oc(-c2ccco2)nc1C=Nc1ccccc1)c1ccoc1 | 46.5 (inactive)
Cc1cccc(N=C2NC(=O)/C(=C/C=C/c3ccco3)S2)c1C | 34.7 (inactive)
CCC(=O)Oc1oc(-c2ccccc2)nc1C=Nc1ccccc1OC | 41.6 (inactive)
O=S(=O)(/N=C(/Sc1ccccc1)c1ccccc1)c1ccccc1 | 34.5 (inactive)
CCN1/C(=C/C=C/c2sc3ccccc3[n+]2CC)Sc2ccccc21 | 31.9 (inactive)
CN(C)c1ccc(/C=C/c2cc[n+](C)cc2)cc1 | 44.5 (inactive)
Cc1ccc(NC(=O)c2ccc(Cl)c(N3C(=O)C=CC3=O)c2)cc1 | 22.4 (inactive)
O=C(Nc1ccc(N2CCOCC2)cc1)C1CCN(S(=O)(=O)c2ccc3c(c2)OCCO3)CC1 | 34.9 (inactive)
N#C/C(=C\c1cc(Br)ccc1F)C(=O)NC1CC1 | 24.2 (inactive)
O=[N+]([O-])c1cc(F)c2cccnc2c1O | 25.6 (inactive)
COc1cc(/C=C2\CC/C(=C\c3cc(OC)c(O)c(OC)c3)C2=O)cc(OC)c1O | 39.6 (inactive)
N#Cc1ccc(N=c2ssnc2Cl)cc1 | 42 (inactive)
COc1ccc(C2=CC3=C(Br)C(=O)C(C)(O)C(=O)C3=CO2)cc1 (stereo not drawn) | 1.92 (inactive)
Oc1c(CN2CCCCC2)cc(Br)c2cccnc12 | 43.4 (inactive)

Source: PubChem BioAssay AID2740 (NMMLSC, 2010)
